Key:
Assay in all cases: relative viability (nuclei count vs DMSO), 5 days (fraction); higher = more cells survive
[1] = compound: CN(c1ncccc1CNc1nc(Nc2ccc3c(c2)CC(=O)N3)ncc1C(F)(F)F)S(C)(=O)=O + CC(C)C[C@H](NC(=O)[C@H](Cc1ccccc1)NC(=O)c1cnccn1)B(O)O [Bortezomib] (partner 0.002 µM)
How it was run: (§1)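 Values are medians from duplicate plates. Each reflects relative viability, defined as the nuclei count of treated wells over that of vehicle wells. Lung cancer cell lines in 1536-well plates were pin-tool dosed one day after seeding with one drug alone or with a fixed anchor-drug dose plus five library-drug doses (not always all listed) in √10 steps, then fixed, stained and imaged at 4× after 5 days.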

[2] = compound: CN(c1ncccc1CNc1nc(Nc2ccc3c(c2)CC(=O)N3)ncc1C(F)(F)F)S(C)(=O)=O + CS(=O)(=O)CCNCc1ccc(-c2ccc3ncnc(Nc4ccc(OCc5cccc(F)c5)c(Cl)c4)c3c2)o1 [Lapatinib] (partner 2 µM)
How it was run: as §1

[3] = compound: CN(c1ncccc1CNc1nc(Nc2ccc3c(c2)CC(=O)N3)ncc1C(F)(F)F)S(C)(=O)=O + NC(=O)Nc1cc(-c2cccc(F)c2)sc1C(=O)N[C@H]1CCCNC1 [AZD7762] (partner 0.2 µM)
How it was run: as §1

[4] = compound: CN(c1ncccc1CNc1nc(Nc2ccc3c(c2)CC(=O)N3)ncc1C(F)(F)F)S(C)(=O)=O + Nc1ncn([C@H]2C[C@H](O)[C@@H](CO)O2)c(=O)n1 [Decitabine] (partner 2 µM)
How it was run: as §1

Cell Line	relative viability ([1]; first compound 0.01 µM)	relative viability ([1]; first compound 0.03162 µM)	relative viability ([1]; first compound 0.1 µM)	relative viability ([1]; first compound 0.3162 µM)	relative viability ([1]; first compound 1 µM)	relative viability ([2]; first compound 0.01 µM)	relative viability ([2]; first compound 0.03162 µM)	relative viability ([2]; first compound 0.1 µM)	relative viability ([2]; first compound 0.3162 µM)	relative viability ([2]; first compound 1 µM)	relative viability ([3]; first compound 0.01 µM)	relative viability ([3]; first compound 0.03162 µM)	relative viability ([3]; first compound 0.1 µM)	relative viability ([3]; first compound 0.3162 µM)	relative viability ([3]; first compound 1 µM)	relative viability ([4]; first compound 0.01 µM)	relative viability ([4]; first compound 0.03162 µM)	relative viability ([4]; first compound 0.1 µM)	relative viability ([4]; first compound 0.3162 µM)	relative viability ([4]; first compound 1 µM)
HCC-78	0.567	0.587	0.502	0.462	0.422	1.09	0.748	0.708	0.713	0.329	0.859	0.646	0.644	0.565	0.521	0.755	0.699	0.719	0.636	0.697
HCC-366	0.927	1.24	1.09	1.02	1.06	1	1.11	1.05	1.06	0.971	0.378	0.329	0.319	0.288	0.34	0.332	0.369	0.327	0.354	0.307
HCC-827	1.1	1.06	1.09	1.02	1.05	0.186	0.149	0.215	0.177	0.182	0.202	0.227	0.25	0.284	0.331	0.284	0.309	0.348	0.413	0.391
HOP-62	0.839	0.673	0.939	0.803	0.911	1.06	1.1	1.02	1.09	0.903	0.742	0.776	0.531	0.75	0.628	0.208	0.212	0.256	0.211	0.245
LC-2-ad	1.04	1	1.06	0.961	0.799	1.12	0.958	1	0.864	0.756	0.864	0.808	0.892	0.768	0.811	0.789	0.833	0.828	0.852	0.863
LCLC-97TM1	1.04	0.74	0.439	0.559	0.526	–	0.658	0.841	0.752	0.516	0.264	0.278	0.218	0.267	0.195	0.228	0.212	0.2	0.238	0.215
LOU-NH91	0.497	0.47	0.482	0.482	0.459	0.777	0.714	0.73	0.743	0.741	0.793	0.754	0.735	0.746	0.79	0.863	0.832	0.812	0.844	0.839
LU99A	1.15	1.26	1.09	1.43	1.22	0.971	1.19	1.01	1.17	1.08	0.377	0.507	0.509	0.572	0.476	0.959	0.996	0.907	0.874	0.913
LXF-289	1.05	1.01	0.991	0.989	0.978	0.949	0.883	0.9	0.925	0.89	1.16	1.17	1.1	1.13	1.2	0.374	0.427	0.419	0.412	0.447
NCI-H23	1.22	1.38	1.09	1.08	1.03	1.26	1.25	1.11	1.21	0.987	0.245	0.276	0.243	0.289	0.382	0.308	0.345	0.319	0.332	0.292
NCI-H322M	1.26	1.41	–	1.38	1.44	0.585	0.675	–	0.596	0.653	0.584	0.556	0.62	0.663	0.813	0.697	0.802	0.775	0.681	0.714
NCI-H460	1.18	1.39	1.13	1.07	1.13	1.11	1.65	0.963	0.964	1.02	0.714	0.824	0.643	0.661	0.684	0.477	0.702	0.537	0.493	0.549
NCI-H596	0.793	0.973	0.93	1.1	1.28	1.05	1.16	0.929	0.979	1.06	0.999	1.1	0.948	1.05	1.05	1.15	1.01	1.11	1.03	1.13
NCI-H647	0.934	1.52	1.04	0.931	0.886	1.19	1.3	1.11	1.04	1.03	0.383	0.515	0.611	0.566	0.471	0.425	0.51	0.498	0.544	0.502
NCI-H650	0.69	0.846	0.843	0.692	0.649	0.977	0.971	0.813	0.703	0.992	0.909	1.08	0.822	0.948	0.995	0.316	0.351	0.342	0.285	0.307
NCI-H727	0.897	1	0.73	0.765	0.731	0.813	1.09	0.549	0.85	0.676	0.595	0.555	0.447	0.842	0.69	0.943	0.827	0.793	0.896	0.936
NCI-H838	0.767	0.923	0.88	0.942	0.598	0.958	1.23	0.981	0.753	0.638	0.994	0.955	0.964	0.861	0.933	0.46	0.472	0.5	0.444	0.397
NCI-H1355	1.29	1.28	1.14	1.14	1.07	1.03	1.04	0.985	0.919	0.873	0.866	0.864	0.944	0.732	0.697	0.368	0.36	0.337	0.404	0.379
NCI-H1437	0.612	0.462	0.527	0.514	0.405	0.876	0.944	0.813	0.722	0.725	1.12	1.17	1.15	1.08	1.07	0.535	0.661	0.502	0.498	0.422
NCI-H1651	0.936	1.04	0.939	0.885	0.9	0.82	1.02	0.9	0.731	0.784	0.507	0.469	0.488	0.534	0.484	0.657	0.695	0.623	0.713	0.576
NCI-H1666	0.887	0.678	0.668	0.708	0.589	0.678	0.624	0.611	0.546	0.493	0.978	0.834	0.838	0.932	0.847	0.729	0.749	0.642	0.666	0.628
NCI-H1734	1.06	1.1	0.996	0.857	0.949	0.993	1.17	1.06	1.1	1.05	0.55	0.659	0.667	0.782	0.742	0.473	0.535	0.571	0.524	0.55
NCI-H1755	0.985	0.967	0.983	0.849	0.826	1.09	1.08	1.01	0.961	0.957	0.585	0.398	0.488	0.502	0.437	0.682	0.728	0.721	0.646	0.707
NCI-H1792	1.02	0.999	0.83	0.924	0.941	0.93	0.937	0.905	0.827	0.835	0.721	0.822	0.674	0.722	0.755	0.469	0.586	0.523	0.606	0.586
NCI-H1915	0.988	1.05	1.01	0.888	0.963	0.99	0.919	0.912	0.93	0.969	0.762	0.654	0.696	0.703	0.76	0.278	0.258	0.264	0.247	0.256
NCI-H1975	0.423	0.449	0.44	0.395	0.276	0.921	0.971	0.914	0.926	0.723	0.85	0.839	0.822	0.645	0.755	0.423	0.403	0.432	0.417	0.436
NCI-H1993	0.993	1.22	1.11	1.04	0.907	0.804	0.91	0.82	0.889	0.769	0.852	0.837	0.836	0.634	0.737	0.624	0.609	0.56	0.574	0.605
